Test results published in patent US5395947A, “Platinum(II) complex and processes for preparing the same” (Sunkyong Industries, Ltd., priority 1991, dated 1995).

How the values were obtained:
[1] = tested on: murine leukemia L1210 cells; assay: Growth inhibition test on cultured murine leukemia L1210 cells; format: cell-based; details: 48 hours, 37° C., Trypan blue viability
How it was run: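 Read-out is Trypan blue (0.17%) viability versus compound-free controls. Cells, 1×10^5, were cultured 48 h at 37° C under 5% CO2 in RPMI 1640/10% FCS containing various compound concentrations.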

[2] = tested on: murine leukemia L1210; assay: Antitumor activity test on murine leukemia L1210 in vivo; design: species or system male BDF1 mice; details: days 1, 5, 9
How it was run: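 Male BDF1 mice (6 weeks, 21±3 g; n=7) received 1×10^6 leukemia cells into the peritoneum on day 0, then test compound suspended or dissolved in 0.5% CMC i.p. on days 1, 5, 9. Activity expressed as T/C %, mean survival treated versus 0.5% CMC-injected controls.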

[3] = Test for water solubility; format: physicochemical; details: 20° C.
Source text: 3. Test for water solubility
A standard plot of UV absorbance(220 nm) vs. concentration was made; and employed to determine water-solubility.
The mixture was then passed through a 0.45 micron disposable membrane filter before dilution and UV measurement.

[4] = Test for nephrotoxicity; format: in vivo, male ICR mice; details: 150 mg/kg i.p. once
Experimental: 4. Test for nephrotoxicity
The compounds of the present invention were dissolved or suspended in 0.5% CMC solution(in water) and were administered intraperitoneally one time to 8-week-old male ICR mice weighing 30±3 g. Each treatment and control groups consisted of six mice.
The administration amount of the test compound was 1.5 times the optimum dose obtained in Table 2, or more. On days 1, 4 and 8 after administration, their blood was collected under ether anesthesia for measurement of blood urea nitrogen concentration (BUN value) and creatinine concentration.
A pair of kidneys were taken and, after immediate weighing, were stored in a 10% neutral buffered formalin solution. The body weight ratio shown in Table 5 is a ratio of the body weight measured on days 1, 4 and 8 from the administration of the compound to the body weight measured on the administration day.

## CC1OC2C[NH2+][Pt-2]3([NH2+]CC2O1)[O]C(=O)C1(CCC1)C(=O)[O]3 [Example 23, cis-cyclobutane-1,1-dicarboxylato[(4S,5S)-4,5-bis(aminomethyl)-2-methyl-1,3-dioxolane]platinum(II)]
[1]
  IC50 (concentration required for 50% inhibition of growth): 1.75 µg/mL
[2]; 6.2 mg/kg i.p.
  T/C (%): 108%
[2]; 12.5 mg/kg i.p.
  T/C (%): 115%
[2]; 25 mg/kg i.p.
  T/C (%): 150%
[2]; 50 mg/kg i.p.
  T/C (%): 201%
[2]; 100 mg/kg i.p.
  T/C (%): 254%
[3]
  Solubility in water: 22.1 mg/mL
[4]
  BUN, 1st day: 24.8 mg/100 ml
  BUN, 4th day: 32.1 mg/100 ml
  BUN, 8th day: 42.0 mg/100 ml
  Creatinine, 1st day: 0.26 mg/100 ml
  Creatinine, 4th day: 0.30 mg/100 ml
  Creatinine, 8th day: 0.28 mg/100 ml
[4]; mean ± standard error
  Kidney wt (paired weight), 1st day: 492 ± 22.7 mg
  Kidney wt (paired weight), 4th day: 535 ± 16.3 mg
  Kidney wt (paired weight), 8th day: 527 ± 13.8 mg
[4]; vs. administration day
  body weight ratio (BWR), 1st day: 0.98
  body weight ratio (BWR), 4th day: 0.96
  body weight ratio (BWR), 8th day: 0.99
